Reference: publication PMC12396409, “Screening and hit evaluation of a microbial metabolite library against the pathogenic Plasmodium falciparum and Toxoplasma gondii parasites” (International Journal for Parasitology: Drugs and Drug …, 2025)
Where two headings read alike, the source gives them in different places.

Assays:
[1] = system: P. falciparum 3D7 parasites; assay: P. falciparum growth inhibition assay, 2-cycle (120 h treatment), delayed-death screen and dose-response; format: cell-based, Plasmodium falciparum; conditions: for activity at 2 µg/mL: Plasmodium falciparum
[2] = system: P. falciparum 3D7 parasites; assay: P. falciparum growth inhibition assay, 1-cycle (72 h treatment), SYBR DNA staining (library screen at 2 μg/mL and dose-response); format: cell-based, Plasmodium falciparum; conditions: for activity at 2 µg/mL: Plasmodium falciparum
[3] = system: T. gondii RH strain (RH-Tub-eYFP) tachyzoites; assay: microbe, parasite or virus in culture; format: cell-based, Toxoplasma gondii; conditions: 72 h; for percent parasite growth at 2 µg/mL: Toxoplasma gondii
[4] = P. falciparum, 120 h, parasite screen 2 μg/mL, % growth, replicate 1
[5] = P. falciparum, 120 h, parasite screen 2 μg/mL, % growth, replicate 2
[6] = P. falciparum, 72 h, parasite screen 2 μg/mL, % growth, replicate 1
[7] = P. falciparum, 72 h, parasite screen 2 μg/mL, % growth, replicate 2
[8] = T. gondii, parasite screen 2 μg/mL, % growth, replicate 1
[9] = T. gondii, parasite screen 2 μg/mL, % growth, replicate 2
[10] = library screen at 2 μg/mL, 120 h, % growth, replicate 1
[11] = library screen at 2 μg/mL, 120 h, % growth, replicate 2
[12] = library screen at 2 μg/mL, 72 h, % growth, replicate 1
[13] = library screen at 2 μg/mL, 72 h, % growth, replicate 2
[14] = library screen at 2 μg/mL, % growth, replicate 1
[15] = library screen at 2 μg/mL, % growth, replicate 2
[16] = 3D7, P. falciparum, 120 h, screen at 2 μg/mL, replicate 1, read-out: Pf_120h_%Growth_Rep1
[17] = 3D7, P. falciparum, 120 h, screen at 2 μg/mL, replicate 2, read-out: Pf_120h_%Growth_Rep2
[18] = 3D7, P. falciparum, 72 h, screen at 2 μg/mL, replicate 1, read-out: Pf_72h_%Growth_Rep1
[19] = 3D7, P. falciparum, 72 h, screen at 2 μg/mL, replicate 2, read-out: Pf_72h_%Growth_Rep2
[20] = T. gondii, screen at 2 μg/mL, replicate 1, read-out: Tg_72h_%Growth_Rep1
[21] = T. gondii, screen at 2 μg/mL, replicate 2, read-out: Tg_72h_%Growth_Rep2

CC(=O)N[C@H]1[C@H](O[C@@H]2c3ccc(c(Cl)c3)Oc3cc4cc(c3O[C@@H]3O[C@H](CO)[C@@H](O)[C@H](O)[C@H]3NC(=O)CCCCCCC(C)C)Oc3ccc(cc3Cl)C[C@H]3NC(=O)[C@H](N)c5ccc(O)c(c5)Oc5cc(O)cc(c5)[C@H](NC3=O)C(=O)N[C@H]4C(=O)N[C@H]3C(=O)N[C@@H]2C(=O)N[C@H](C(=O)O)c2cc(O)cc(O[C@H]4O[C@H](CO)[C@@H](O)[C@H](O)[C@@H]4O)c2-c2cc3ccc2O)O[C@H](CO)[C@@H](O)[C@@H]1O [Teicoplanin A2-2]
Pf_120h_%Growth_Rep1 [1, 4]: 148.39%
Pf_120h_%Growth_Rep2 [1, 5]: 93.23%
Pf_72h_%Growth_Rep1 [2, 6]: 72.71%
Pf_72h_%Growth_Rep2 [2, 7]: 85.08%
Tg_72h_%Growth_Rep1 [3, 8]: 90.69%
Tg_72h_%Growth_Rep2 [3, 9]: 106.25%

C[C@H]1O[C@H](O[C@H]2[C@H](O)[C@@H](O)[C@@H](O[C@H]3[C@H](O)[C@@H](O)C(O)O[C@@H]3CO)O[C@@H]2CO)[C@H](O)[C@@H](O)[C@@H]1N[C@H]1C=C(CO)[C@@H](O)[C@H](O)[C@H]1O (stereo partly drawn) [Acarbose]
activity at 2 µg/mL ([1]; 3D7, library screen at 2 μg/mL, 120 h, % growth, replicate 1, read-out: Pf_120h_%Growth_Rep1): 85.5%
activity at 2 µg/mL ([1]; 3D7, library screen at 2 μg/mL, 120 h, % growth, replicate 2, read-out: Pf_120h_%Growth_Rep2): 82.2%
activity at 2 µg/mL ([2]; 3D7, library screen at 2 μg/mL, 72 h, % growth, replicate 1, read-out: Pf_72h_%Growth_Rep1): 83.3%
activity at 2 µg/mL ([2]; 3D7, library screen at 2 μg/mL, 72 h, % growth, replicate 2, read-out: Pf_72h_%Growth_Rep2): 87.2%
percent parasite growth at 2 µg/mL ([3]; library screen at 2 μg/mL, % growth, replicate 1, read-out: Tg_72h_%Growth_Rep1): 105%
percent parasite growth at 2 µg/mL ([3]; library screen at 2 μg/mL, % growth, replicate 2, read-out: Tg_72h_%Growth_Rep2): 86.3%

OC[C@H]1O[C@@H](n2cnc3c2N=CNC[C@H]3O)C[C@@H]1O [BIA-P1273]
Pf_120h_%Growth_Rep1 ([1]; P. falciparum 3D7, 120 h, parasite screen at 2 μg/mL, % growth, replicate 1): 57.41%
Pf_120h_%Growth_Rep2 ([1]; P. falciparum 3D7, 120 h, parasite screen at 2 μg/mL, % growth, replicate 2): 140.11%
Pf_72h_%Growth_Rep1 ([2]; P. falciparum 3D7, 72 h, parasite screen at 2 μg/mL, % growth, replicate 1): 69.65%
Pf_72h_%Growth_Rep2 ([2]; P. falciparum 3D7, 72 h, parasite screen at 2 μg/mL, % growth, replicate 2): 72.25%
Tg_72h_%Growth_Rep1 ([3]; T. gondii, parasite screen at 2 μg/mL, % growth, replicate 1): 120.62%
Tg_72h_%Growth_Rep2 ([3]; T. gondii, parasite screen at 2 μg/mL, % growth, replicate 2): 91.66%

C/C=C(\C)C(=O)OC[C@H]1O[C@H](O[C@H]2O[C@H](COC(=O)/C(C)=C/C)[C@@H](O)[C@H](O)[C@H]2O[C@@H]2O[C@H](CO)[C@@H](OC(=O)/C(C)=C/C)[C@H](OC(=O)/C(C)=C/C)[C@H]2O)[C@H](O[C@@H]2O[C@H](CO)[C@@H](OC(=O)/C(C)=C/C)[C@H](OC(=O)/C(C)=C/C)[C@H]2O)[C@@H](O)[C@@H]1O [Actinotetraose Hexatiglate]
2) Growth (%) at 120 h ([1]; P. falciparum, 2 μg/mL, 120 h): 19.22%
3) Fold change (72 h/120 h) ([1]; P. falciparum, growth at 72 h / growth at 120 h, 2 μg/mL): 2.4
Pf_120h_%Growth_Rep1 [1, 10]: 16.78%
Pf_120h_%Growth_Rep2 [1, 11]: 21.66%
1) Growth (%) at 72 h ([2]; P. falciparum, 2 μg/mL, 72 h): 46.54%
Pf_72h_%Growth_Rep1 [2, 12]: 45.55%
Pf_72h_%Growth_Rep2 [2, 13]: 47.53%
Tg_72h_%Growth_Rep1 [3, 14]: 97.33%
Tg_72h_%Growth_Rep2 [3, 15]: 100.02%

CCC(=O)Nc1c2sscc-2n(C)c1=O [Aureothricin]
Pf_120h_%Growth_Rep1 [1, 10]: 11.34%
Pf_120h_%Growth_Rep2 [1, 11]: -0.06%
Pf_72h_%Growth_Rep1 [2, 12]: 7.64%
Pf_72h_%Growth_Rep2 [2, 13]: 5.69%
Tg_72h_%Growth_Rep1 [3, 14]: 1.55%
Tg_72h_%Growth_Rep2 [3, 15]: 1.43%

CN(C)c1ncnc2c1ncn2[C@@H]1O[C@H](CO)[C@@H](N)[C@H]1O [Puromycin aminonucleoside]
activity at 2 µg/mL ([1]; 3D7, 120 h, P. falciparum, 120 h, parasite screen 2 μg/mL, % growth, replicate 1, read-out: Pf_120h_%Growth_Rep1): 69.5%
activity at 2 µg/mL ([1]; 3D7, 120 h, P. falciparum, 120 h, parasite screen 2 μg/mL, % growth, replicate 2, read-out: Pf_120h_%Growth_Rep2): 57.6%
activity at 2 µg/mL ([2]; 3D7, 72 h, P. falciparum, 72 h, parasite screen 2 μg/mL, % growth, replicate 1, read-out: Pf_72h_%Growth_Rep1): 78%
activity at 2 µg/mL ([2]; 3D7, 72 h, P. falciparum, 72 h, parasite screen 2 μg/mL, % growth, replicate 2, read-out: Pf_72h_%Growth_Rep2): 105%
percent parasite growth at 2 µg/mL ([3]; T. gondii, parasite screen 2 μg/mL, % growth, replicate 1, read-out: Tg_72h_%Growth_Rep1): -2.04%
percent parasite growth at 2 µg/mL ([3]; T. gondii, parasite screen 2 μg/mL, % growth, replicate 2, read-out: Tg_72h_%Growth_Rep2): 0.2%

Pyripyropene A
Pf_120h_%Growth_Rep1 [1, 4]: 67.48%
Pf_120h_%Growth_Rep2 [1, 5]: 119.28%
Pf_72h_%Growth_Rep1 [2, 6]: 79.94%
Pf_72h_%Growth_Rep2 [2, 7]: 110.00%
Tg_72h_%Growth_Rep1 [3, 8]: 125.43%
Tg_72h_%Growth_Rep2 [3, 9]: 86.00%

COc1ccc(C[C@H]2NC[C@H](O)[C@H]2OC(C)=O)cc1 [Anisomycin]
Pf_120h_%Growth_Rep1 [1, 10]: 9.82%
Pf_120h_%Growth_Rep2 [1, 11]: -15.33%
Pf_72h_%Growth_Rep1 [2, 12]: 2.13%
Pf_72h_%Growth_Rep2 [2, 13]: 2.45%
Tg_72h_%Growth_Rep1 [3, 14]: 0.93%
Tg_72h_%Growth_Rep2 [3, 15]: 1.73%

CCCCCCCCCCCCCCCC(=O)C1=C(O)C(CO)OC1=O (stereo not drawn) [TAN 1364B]
Pf_120h_%Growth_Rep1 [1, 4]: 149.02%
Pf_120h_%Growth_Rep2 [1, 5]: 76.93%
Pf_72h_%Growth_Rep1 [2, 6]: 72.25%
Pf_72h_%Growth_Rep2 [2, 7]: 85.83%
Tg_72h_%Growth_Rep1 [3, 8]: 101.38%
Tg_72h_%Growth_Rep2 [3, 9]: 92.62%

CCCCCC[C@H]1C(=O)O[C@H](C)[C@@H](O)/C=C/C=C/C=C/C=C/C=C(\C)[C@@H](O)C[C@H](O)C[C@H](O)C[C@H](O)C[C@H](O)C[C@H](O)C[C@@H]1O [Filipin II]
Pf_120h_%Growth_Rep1 [1, 10]: 90.65%
Pf_120h_%Growth_Rep2 [1, 11]: 90.94%
Pf_72h_%Growth_Rep1 [2, 12]: 85.18%
Pf_72h_%Growth_Rep2 [2, 13]: 87.84%
Tg_72h_%Growth_Rep1 [3, 14]: 129.59%
Tg_72h_%Growth_Rep2 [3, 15]: 103.40%

C=C(NC(=O)C(=C)NC(=O)c1csc(C2=N[C@@H]3c4csc(n4)[C@H]4NC(=O)c5csc(n5)[C@H]([C@](C)(O)[C@@H](C)O)NC(=O)[C@H]5CSC(=N5)/C(=C/C)NC(=O)[C@H]([C@@H](C)O)NC(=O)c5csc(n5)[C@]3(CC2)NC(=O)[C@H](C)NC(=O)C(=C)NC(=O)C(=C)NC(=O)[C@H](C(C)C)N[C@@H]2C=Cc3c([C@H](C)O)cc(nc3[C@H]2O)C(=O)O[C@@H]4C)n1)C(N)=O [Siomycin A]
Pf_120h_%Growth_Rep1 [1, 4]: 88.55%
Pf_120h_%Growth_Rep2 [1, 5]: 55.07%
Pf_72h_%Growth_Rep1 [2, 6]: 88.11%
Pf_72h_%Growth_Rep2 [2, 7]: 105.15%
Tg_72h_%Growth_Rep1 [3, 8]: 94.53%
Tg_72h_%Growth_Rep2 [3, 9]: 80.70%

COC(=O)C1=C2Nc3ccccc3[C@@]23CCN2C[C@]4(C[C@@H]5C[C@]67CCC[C@H]6CCN6CC[C@@]8(c9cccc(OC)c9N(C4)[C@@]58O)[C@@H]67)[C@@H]4OCC[C@]4(C1)[C@H]23 [Vobtusine]
activity at 2 µg/mL [1, 16]: 166%
activity at 2 µg/mL [1, 17]: 96.3%
activity at 2 µg/mL [2, 18]: 81.5%
activity at 2 µg/mL [2, 19]: 87%
percent parasite growth at 2 µg/mL [3, 20]: 86.1%
percent parasite growth at 2 µg/mL [3, 21]: 105%

O=C(O)[C@H]1/C(=C/CO)O[C@@H]2CC(=O)N21 [Clavulanate potassium]
activity at 2 µg/mL [1, 16]: 88.4%
activity at 2 µg/mL [1, 17]: 86.6%
activity at 2 µg/mL [2, 18]: 85.1%
activity at 2 µg/mL [2, 19]: 88.1%
percent parasite growth at 2 µg/mL [3, 20]: 102%
percent parasite growth at 2 µg/mL [3, 21]: 102%

C[C@H]1O[C@@H]2CC(=O)O[C@@H]2C2=C1C(=O)c1c(O)cc3c(c1C2=O)[C@H]1C[C@@H](N(C)C)[C@H](O)[C@]3(C)O1 [Sch 38519]
Pf_120h_%Growth_Rep1 [1, 4]: 51.02%
Pf_120h_%Growth_Rep2 [1, 5]: 51.53%
Pf_72h_%Growth_Rep1 [2, 6]: 54.64%
Pf_72h_%Growth_Rep2 [2, 7]: 23.72%
Tg_72h_%Growth_Rep1 [3, 8]: 50.53%
Tg_72h_%Growth_Rep2 [3, 9]: 29.49%
